According to PubChem BioAssay AID588620 (NMMLSC, 2011):
Active and inactive are the calls of the source.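 The calls were made as follows: active = fitted half-maximal concentration below 30 µM for cell fluorescence in pump-free yeast, so likely self-fluorescent; inactive = the rest.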

experiment: concentration-dependent intrinsic compound fluorescence, S. cerevisiae AD/pABC3, flow cytometry, Cherry Pick1 hits, artefact control for antifungal efflux pump inhibitor project, dose response (AID 588620);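 also: red emission of unstained cells excited at 488 nm measured in PE-Texas Red channel; cell median fluorescence as percent of DMSO wells so 100% equals vehicle baseline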; conditions: S. cerevisiae AD/pABC3 compound autofluorescence, flow cytometry; at 33.1 µM (top of the series)

| SMILES | fluorescence response, % of control |
| --- | --- |
| Cc1ccc(CN2C(=O)C(Cc3ccccc3)Nc3ncnc(N4CCN(c5ccccc5)CC4)c32)cc1 (stereo unspecified) | 111% (inactive) |
| Cc1ccc(C(=O)N2CCC3(CC2)Oc2ccc(Cl)cc2C(=O)C32CC(c3ccccc3)=NO2)s1 (stereo unspecified) | 105% (inactive) |
| COc1cccc(-c2sc3ccc(OC)cc3c2-c2ccc(OCCN3CCOCC3)cc2)c1 | 92.4% (inactive) |
| O=C(CSc1nnc(-c2cccnc2)n1Cc1ccco1)c1ccc(Cl)c(Cl)c1 | 81.2% (inactive) |
| N#CC(C(=O)NCc1ccccc1)c1nc2ccccc2nc1N1CCCC1 (stereo unspecified) | 102% (inactive) |
| Cc1cc(Cl)c(OCCCn2ccnc2)c(Br)c1 | 83.7% (inactive) |
| CC(C)n1cc(/C=N/NC(=O)COc2cccc3cccnc23)c2ccccc21 | 91.7% (inactive) |
| CCN(CC)c1ccc(/C=C/c2cc(-c3ccccc3)c3ccccc3n2)cc1 | 406% (inactive) |
| C[C@@H]1CN(C(=O)c2cc(COc3cccc(C(F)(F)F)c3)on2)C[C@H](C)O1 | 97.1% (inactive) |
| Cc1ccc(Cl)cc1N1CCN(c2cccc[n+]2C)CC1 | 95.1% (inactive) |
| COc1ccc(-c2nc(Cn3c(SCc4ccc(C)cc4)nc4ccncc43)c(C)o2)cc1OC | 87.6% (inactive) |
| COc1ccc(-c2sc3cc4c(cc3c2-c2ccc(OCCN3CCCCC3)cc2)OCO4)cc1 | 91.7% (inactive) |
| COC(=O)c1ccc(S(=O)(=O)NCc2ccc(OC)cc2)n1C | 96.9% (inactive) |
| O=C(CSc1nnc(Cc2cccs2)n1Cc1ccco1)Nc1ccc(Br)cc1 | 86% (inactive) |
| O=C(O)Cc1ccc(NC(=O)c2ccc(NC(=O)c3ccco3)cc2)cc1 | 109% (inactive) |
| Cc1ccc(Cn2nnc3c(=O)[nH]c(C4CCN(S(=O)(=O)c5ccccc5)CC4)nc32)cc1 | 87.4% (inactive) |
| COc1ccc(C(=O)NC2CCCc3c2cnn3-c2ccccc2F)o1 (stereo unspecified) | 86.3% (inactive) |
| COc1ccc(-c2nc3ccccc3c(=O)n2CCOc2cc(C)ccc2C)cc1 | 135% (inactive) |
| O=C(NCCC1=CCCCC1)C1CCC(CNc2nc(=S)[nH]c3ccccc23)CC1 (stereo unspecified) | 108% (inactive) |
| O=C1C(Cc2ccccc2)Nc2ncnc(N3CCN(c4ccccc4)CC3)c2N1Cc1ccccc1 (stereo unspecified) | 105% (inactive) |
| Clc1ccc(Cn2nc(-c3ccccc3)nc2-c2ccccc2)cc1 | 108% (inactive) |

| SMILES | fluorescence response, % of control |
| --- | --- |
| Cc1ccc(CC2CC(=O)N(Cc3ccco3)C2=O)cc1 (stereo unspecified) | 93.5% (inactive) |
| CCOc1cccc(-c2nc(C(N)=O)c3[nH]c(=O)n(-c4cccc(Cl)c4)c3n2)c1O | 102% (inactive) |
| Cc1ccc(C(=O)N2CCC3(CC2)Oc2ccc(Cl)cc2C(=O)C32CC(c3ccc(Cl)cc3)=NO2)s1 (stereo unspecified) | 94.5% (inactive) |
| CCOC(=O)c1ccc(S(=O)(=O)NNS(=O)(=O)c2ccc(C)cc2)cc1 | 112% (inactive) |
| COc1ncccc1C(=O)NC1CCCc2c1cnn2-c1cc(C)cc(C)c1 (stereo unspecified) | 76.4% (inactive) |
| O=C1c2cc(Cl)ccc2OC2(CCNCC2)C12CC(c1ccccc1)=NO2 (stereo unspecified) | 107% (inactive) |
| COc1ccc(S(=O)(=O)N(C)C[C@H]2Oc3c(NC(=O)NC4CCCCC4)cccc3C(=O)N([C@H](C)CO)C[C@@H]2C)cc1 | 119% (inactive) |
| COc1ccc(/C=C2\SC(=O)N(CCC(=O)Nc3ccccc3)C2=O)cc1OC | 99.1% (inactive) |
| Cc1c(NC(=O)c2ncn[nH]2)cccc1-c1nc2ccccc2s1 | 109% (inactive) |
| Cc1cc(O)c(C(C)C)cc1C1(c2cc(C(C)C)c(O)cc2C)OC(=O)c2ccccc21 | 99.8% (inactive) |
| COc1ccc(-c2sc3ccccc3c2-c2ccc(OCCN(C)C)cc2)cc1 | 112% (inactive) |
| COc1ccc2c(c1)OC[C@H]1[C@H]2N2C(=O)c3ccc(C)cc3NC(=O)[C@@]2(C)[C@H]1c1ccccc1 | 106% (inactive) |
| CCC(=O)N1CCN(c2ccc(Cl)cc2NC(=O)c2ccc3c(c2)OCCO3)CC1 | 99.8% (inactive) |
| COc1ccc(-c2[nH]c(-c3ccc4c(c3)OCO4)nc2-c2ccccc2)cc1 | 80.8% (inactive) |
| CCc1c(C)nc2cc(-c3cc(OC)cc(OC)c3)nn2c1N1CCN(CCN2CCOCC2)CC1 | 130% (inactive) |
| COc1ccc(Cn2c(-c3ccccc3)nc3c(c(=O)c4ccccc4n3C)c2=O)cc1 | 102% (inactive) |
| O=C(/C=C/c1ccccc1Cl)NCCc1ccccc1 | 89.7% (inactive) |
| C[C@@]12C(=O)Nc3ccc(Cl)cc3C(=O)N1[C@H]1c3cc(Cl)ccc3OC[C@@H]1[C@@H]2c1ccccc1 | 103% (inactive) |
| Cc1cccc(NC(=O)c2nc[nH]c2C(=O)N[C@H](C)c2ccccc2)c1 | 92.4% (inactive) |
| CCn1ncc(Br)c1C(=O)Nc1sc2c(c1C(=O)OC)CCC2 | 117% (inactive) |
| Nc1ccc2nc(-c3cccc(-c4nc5ccc(N)cc5[nH]4)c3)[nH]c2c1 | 99.3% (inactive) |

| SMILES | fluorescence response, % of control |
| --- | --- |
| COc1ccc2nccc(/C=C/c3ccnc4ccc(OC)cc34)c2c1 | 126% (inactive) |
| O=C(c1ccoc1)N1CCC2(CC1)Oc1ccc(Cl)cc1C(=O)C21CC(c2ccc(Cl)cc2)=NO1 (stereo unspecified) | 119% (inactive) |
| COc1ccc(-c2sc3ccccc3c2-c2ccc(OCCN3CCOCC3)cc2)cc1 | 111% (inactive) |
| COc1ccccc1-c1sc2ccccc2c1-c1ccc(OCCN2CCCCC2)cc1 | 102% (inactive) |
| CCCCOc1ccc(C(=O)NCC(=O)OCC(=O)c2c(N)n(C)c(=O)n(C)c2=O)cc1 | 89% (inactive) |
| CCOC(=O)c1c(-c2ccc(-c3ccccc3)cc2)csc1NC(=O)CNCCN(C)C | 135% (inactive) |
| COC(=O)C1=C(C)N=c2s/c(=C/c3ccoc3)c(=O)n2C1c1ccccc1 (stereo unspecified) | 821% (inactive) |
| O=C(c1ccc2c(c1)OCO2)N1CCC2(CC1)Oc1ccc(F)cc1C(=O)C21CC(c2ccc(Cl)cc2)=NO1 (stereo unspecified) | 165% (inactive) |
| CCC1Nc2ncnc(N3CCN(c4ccccn4)CC3)c2N(Cc2ccc(Br)cc2)C1=O (stereo unspecified) | 85.4% (inactive) |
| Cc1ccc(-n2c(-c3ccc(Br)cc3)c[n+]3c2CCc2ccc4cccnc4c2-3)cc1 | 92.4% (inactive) |
| COc1ccc2cc(CN(CC3CCCO3)S(=O)(=O)c3ccc(C(C)=O)cc3)c(=O)[nH]c2c1 (stereo unspecified) | 78.2% (inactive) |
| COc1cccc(-c2sc3ccc(OC)cc3c2-c2ccc(OCCN3CCCC3)cc2)c1 | 112% (inactive) |
| COc1cccc(CN(CC(=O)NCC2CCCO2)C(=O)CCC(=O)Nc2cc(C)on2)c1 (stereo unspecified) | 103% (inactive) |
| COc1ccc2c(-c3ccc(OCCN4CCCCC4)cc3)c(-c3ccccc3OC)sc2c1 | 102% (inactive) |
| COc1ccccc1-c1sc2cc3c(cc2c1-c1ccc(OCCN2CCOCC2)cc1)OCO3 | 87.6% (inactive) |
| O=c1[nH]c(C2CCN(S(=O)(=O)c3ccc4c(c3)OCCO4)CC2)nc2c1nnn2Cc1ccc(F)cc1 | 94.5% (inactive) |
| Cc1ccc2sc(N(CCCN(C)C)C(=O)c3ccc(Br)s3)nc2c1C | 78.2% (inactive) |
| COc1ccc([C@H]2CC(=O)C=C(c3ccnc4ccc(Cl)cc34)C2)cc1 | 92.4% (inactive) |
| CC1(C)Cc2c(cnn2-c2ccc(F)cc2)C(NC(=O)c2cnccn2)C1 (stereo unspecified) | 102% (inactive) |
| Cc1ccsc1-c1nc(C(N)=O)c2[nH]c(=O)n(-c3ccc(Cl)cc3)c2n1 | 102% (inactive) |
| CCOC(=O)C(NC(=O)CC)(Nc1ccccc1)C(F)(F)F (stereo unspecified) | 103% (inactive) |

| SMILES | fluorescence response, % of control |
| --- | --- |
| COc1ccc(-c2sc3ccc(OC)cc3c2-c2ccc(OCCN3CCOCC3)cc2)cc1 | 96.3% (inactive) |
| Cc1noc(C)c1C(=O)N1CCC2(CC1)Oc1ccc(F)cc1C(=O)C21CC(c2ccc(Cl)cc2)=NO1 (stereo unspecified) | 90.5% (inactive) |
| CCC1Nc2ncnc(N3CCN(c4ccccc4)CC3)c2N(Cc2ccccc2)C1=O (stereo unspecified) | 103% (inactive) |
| CCCCCCCCCCOC(=O)Cn1c(COc2cccc(C)c2)[n+](C)c2ccccc21 | 105% (inactive) |
| COc1ccc(NC(=O)Nc2cccc3c2O[C@H](CN(C)C(=O)Nc2ccc(OC)cc2)[C@@H](C)CN([C@H](C)CO)C3=O)cc1 | 86% (inactive) |
| CCn1ncc(Br)c1C(=O)Nc1cc(C)cc(C)c1 | 129% (inactive) |
| O=C(Nc1ccccc1C(=O)O)c1ccc(NC(=O)c2ccc(Br)o2)cc1 | 107% (inactive) |
| CC(=O)Nc1ccc(NC(=O)Cc2ccc(F)cc2)cc1 | 106% (inactive) |
| COc1cccc(-c2sc3ccc(OC)cc3c2-c2ccc(OCCN(C)C)cc2)c1 | 126% (inactive) |
| O=C(C[n+]1cc(-c2ccc(Cl)c(Cl)c2)n2c1CCC2)N1c2ccccc2Sc2ccccc21 | 92.7% (inactive) |
| O=C(NC(=Nc1nc2ccccc2o1)NC(=O)c1ccccc1)c1ccccc1 | 102% (inactive) |
| COc1ccc(-n2ncc3c2CC(C)(C)CC3NC(=O)c2cn[nH]c2)cc1 (stereo unspecified) | 110% (inactive) |
| COc1ccc2sc(-c3ccccc3OC)c(-c3ccc(OCCN(C)C)cc3)c2c1 | 118% (inactive) |
| COc1ccc2[nH]c3c(C)c4cc[n+](C)cc4c(C)c3c2c1 | 153% (inactive) |
| CCSc1cc(N2CCOCC2)nc(-c2ccccc2)n1 | 89.7% (inactive) |
| Cc1ccc(CN2C(=O)C(CC(C)C)Nc3ncnc(N4CCN(c5ccccc5)CC4)c32)cc1 (stereo unspecified) | 102% (inactive) |
| O=C(O)CCCN1C(=O)/C(=C\c2ccc(-c3nc4ccccc4s3)o2)SC1=S | 288% (inactive) |
| NC(=O)c1nc(-c2cccs2)nc2c1[nH]c(=O)n2-c1ccc(F)cc1 | 93.5% (inactive) |
